Measured values: patent US11109593B2, “Isoxazolin-5-one derivative and herbicide containing same as active ingredient” (HOKKO CHEMICAL INDUSTRY CO., LTD., priority 2017, dated 2021)

How the values were obtained:
Type in all cases: in vivo
Echinochloa crus-galli [1] = experiment: Test Example 3: herbicidal effect test by treatment of dry field farming soil (one day after seeding); conditions: 120 g/10a active ingredient, evaluated 14 days after treatment
Summary of the method: (§1)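 Alluvial dry-field soil in pots, top 1 cm mixed with 20 seeds per weed species. One day after seeding, the water-diluted emulsion was sprayed onto the soil surface at 100 L per 10 ares (120 g active ingredient per 10 ares). Duplicate pots; herbicidal rate (%) from plant dry weight versus untreated, 14 days after treatment.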

Chenopodium album [2] = experiment: as above; conditions: 120 g/10a active ingredient, evaluated 14 days after treatment
Summary of the method: as §1

southern crabgrass [3] = experiment: as above; conditions: 120 g/10a active ingredient, evaluated 14 days after treatment
Summary of the method: as §1

Amaranthus viridis [4] = experiment: as above; conditions: 120 g/10a active ingredient, evaluated 14 days after treatment
Summary of the method: as §1

Echinochloa crus-galli [5] = experiment: Test Example 1: herbicidal effect test by treatment of rice paddy soil (immediately after seeding); conditions: 120 g/10a active ingredient, dry weight vs untreated area, 14 days after treatment
Summary of the method: (§2)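 Applied at 120 g a.i./10 ares as diluted emulsion dropped into flooded (~3 cm) paddy soil pots right after sowing seeds 0–1 cm deep; greenhouse, two replicates. At day 14, dry weight of treated versus untreated plants gives % herbicidal rate.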

Scirpus juncoides [6] = experiment: as above; conditions: 120 g/10a active ingredient, dry weight vs untreated area, 14 days after treatment
Summary of the method: as §2

[7] = system: broad leaf weeds (Lindernia pyxidaria and Monochoria vaginalis); experiment: as above; conditions: 120 g/10a active ingredient, dry weight vs untreated area, 14 days after treatment
Summary of the method: as §2

Echinochloa crus-galli [8] = experiment: Test Example 4: herbicidal effect test by treatment of leave and stem in dry field farming (seven days after seeding); conditions: 120 g/10a active ingredient; emulsion sprayed seven days after seeding; evaluated 14 days after treatment
Protocol: (§3) This test was conducted in a double system per one agent solution concentration area, and the herbicidal rates (%) were determined by the following equation (Math. 1) on 14 days after the treatment with the agents. Herbicidal Rate (%)={1-(Average Dry Weight (g) of Plant of Treated Area)/(Average Dry Weight (g) of Plant of Untreated Area)}×100 [Math. 1]
(§4) Herbicidal Effect Test by Treatment of Leave and Stem in Dry Field Farming
(§5) Pots with a size of 36 cm^2 were filled with a dry field farming soil (alluvium). The soil of the top layer of 1 cm and seeds of weeds, namely southern crabgrass, Echinochloa crus-galli, Chenopodium album and Amaranthus viridis, 20 seeds each, were evenly mixed, and the top layer was gently pressed. Emulsions prepared using the compounds in Table 6 below according to Formulation Example 5 were diluted with water seven days after seeding, and the water-diluted agent solutions were sprayed to the soil surfaces at a ratio of 100 liters per 10 ares. The converted amount of the applied active ingredient corresponded to 120 g per 10 ares. The herbicidal effects were evaluated by the same standard as that in Test Example 1 on 14 days after the treatment with the agents. […] The compound numbers in Table 6 are the same as those in Table 1 and Table 2 above.

Chenopodium album [9] = experiment: as above; conditions: 120 g/10a active ingredient; emulsion sprayed seven days after seeding; evaluated 14 days after treatment
Protocol: as §3, §4, §5

southern crabgrass [10] = experiment: as above; conditions: 120 g/10a active ingredient; emulsion sprayed seven days after seeding; evaluated 14 days after treatment
Protocol: as §3, §4, §5

Amaranthus viridis [11] = experiment: as above; conditions: 120 g/10a active ingredient; emulsion sprayed seven days after seeding; evaluated 14 days after treatment
Protocol: as §3, §4, §5

Echinochloa crus-galli [12] = experiment: Test Example 2: herbicidal effect test by treatment during growing period in paddy rice cultivation (seven days after seeding); conditions: 120 g/10a active ingredient, assessed 14 days after treatment, dry weight vs untreated area
Summary of the method: (§6)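 Seeds sown 0–1 cm deep in puddled, fertilised paddy soil with about 3 cm standing water in a glass greenhouse. Diluted emulsion dropped into the water seven days after seeding at 120 g active ingredient per 10 ares. Herbicidal rate (%) from mean dry weight vs untreated, duplicate, 14 days after treatment.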

Scirpus juncoides [13] = experiment: as above; conditions: 120 g/10a active ingredient, assessed 14 days after treatment, dry weight vs untreated area
Summary of the method: as §6

[14] = system: broad leaf weeds (Lindernia pyxidaria and Monochoria vaginalis); experiment: as above; conditions: 120 g/10a active ingredient, assessed 14 days after treatment, dry weight vs untreated area
Summary of the method: as §6

Row | Structure (SMILES) | herbicidal rate, Echinochloa crus-galli (Echinochloa crus-galli [1]) | herbicidal rate, Chenopodium album (Chenopodium album [2]) | herbicidal rate, southern crabgrass (southern crabgrass [3]) | herbicidal rate, Amaranthus viridis (Amaranthus viridis [4]) | Herbicidal rate (%) Echinochloa crus-galli (Echinochloa crus-galli [5]) | Herbicidal rate (%) Scirpus juncoides (Scirpus juncoides [6]) | Herbicidal rate (%) Lindernia pyxidaria [7] | Herbicidal rate (%) Monochoria vaginalis [7] | herbicidal effect (herbicidal rate), Echinochloa crus-galli (Echinochloa crus-galli [8]) | herbicidal effect (herbicidal rate), Chenopodium album (Chenopodium album [9]) | herbicidal effect (herbicidal rate), southern crabgrass (southern crabgrass [10]) | herbicidal effect (herbicidal rate), Amaranthus viridis (Amaranthus viridis [11]) | Herbicidal rate (%) Echinochloa crus-galli (Echinochloa crus-galli [12]) | Herbicidal rate (%) Scirpus juncoides (Scirpus juncoides [13]) | Herbicidal rate (%) Lindernia pyxidaria [14] | Herbicidal rate (%) Monochoria vaginalis [14]
1 | COCC(C)n1oc(=O)c(Cc2ccccc2N(C(=O)c2ccccc2)S(=O)(=O)C(F)(F)F)c1C (centres unmarked) [Compound 1-479] | 90% | 90% | 90% | 90% | 90% | 90% | 90% | 90% | 90% | 40% | 90% | 40% | 90% | 90% | 90% | 90%
2 | COCCOC(=O)N(c1ccccc1Cc1c(C)n(C(C)c2ccccc2)oc1=O)S(=O)(=O)C(F)(F)F (centres unmarked) [Compound 1-736] | 90% | 90% | 90% | 90% | 90% | 90% | 90% | 90% | 90% | 40% | 90% | 40% | 90% | 90% | 90% | 90%
3 | Cc1c(Cc2ccccc2N(C(=O)OCC(C)C)S(=O)(=O)C(F)(F)F)c(=O)on1C(C)(C)C [Compound 1-668] | 90% | 90% | 90% | 90% | 90% | 90% | 90% | 90% | 90% | 40% | 90% | 40% | 90% | 90% | 90% | 90%
4 | Cc1c(Cc2ccccc2NS(=O)(=O)C(F)(F)F)c(=O)on1C1CCc2ccccc21 (centres unmarked) [Compound 1-222] | 100% | 100% | 100% | 100% | 100% | 90% | 90% | 90% | 70% | 50% | 80% | 40% | 90% | 90% | 90% | 90%
5 | COCC(C)n1oc(=O)c(Cc2ccccc2N(S(C)(=O)=O)S(=O)(=O)C(F)(F)F)c1C (centres unmarked) [Compound 1-899] | 90% | 90% | 90% | 90% | 90% | 90% | 90% | 90% | 90% | 40% | 90% | 40% | 90% | 90% | 90% | 90%
6 | Cc1ccc(Cn2oc(=O)c(Cc3ccccc3NS(=O)(=O)C(F)(F)F)c2C)cc1 [Compound 1-191] |  |  |  |  | 90% | 90% | 100% | 90% | 90% | 40% | 40% | 80% | 90% | 90% | 80% | 80%
7 | CSCCn1oc(=O)c(Cc2ccccc2NS(=O)(=O)C(F)(F)F)c1C [Compound 1-162] |  |  |  |  | 100% | 100% | 100% | 100% | 90% | 60% | 60% | 50% | 90% | 80% | 70% | 80%
8 | CCCCCC(c1ccccc1)n1oc(=O)c(Cc2ccccc2N(S(=O)(=O)C(F)(F)F)S(=O)(=O)C(F)(F)F)c1C (centres unmarked) [Compound 1-1042] |  |  |  |  | 90% | 90% | 90% | 80% | 0% | 40% | 50% | 40% | 60% | 70% | 60% | 60%
9 | CSCCn1oc(=O)c(Cc2ccccc2N(S(=O)(=O)C(F)(F)F)S(=O)(=O)C(F)(F)F)c1C [Compound 1-1002] |  |  |  |  | 100% | 100% | 100% | 100% | 90% | 70% | 60% | 50% | 90% | 80% | 60% | 80%
10 | Cc1c(Cc2ccccc2N(S(=O)(=O)C(F)(F)F)S(=O)(=O)C(F)(F)F)c(=O)on1CC(C)c1ccccc1 (centres unmarked) [Compound 1-1046] |  |  |  |  | 100% | 90% | 70% | 80% | 90% | 0% | 60% | 90% | 90% | 90% | 60% | 90%
